Tests used:
[1] = test system: endoplasmic reticulum stress response (EUA activity) in 293A transformed cells; experiment: Endoplasmic reticulum stress reporter (10×ERSE2-10×UPRE-5×AARE-EGFP) fluorescence under Tunicamycin; assay type: cell-based; conditions: for inhibition at 5 µM: 293A, read-out: Endoplasmic reticulum stress inhibition rate (Z)%; for Suppression of EUA activity (endoplasmic reticulum stress response activation) caused by Tunicamycin: FIG. 5
[2] = test system: 293A transformed cell line; conditions: FIG. 8; for Cell proliferation on treatment with the stress inducer / cytotoxic compound alone: no test compound added
Method: It is noted that in addition to Tm, camptothecin (CPT) was also used as a compound to confer cytotoxicity, and this was used as a positive control for cell death. Cell proliferation rate was determined by obtaining bright field images using a high content confocal imaging system (PerkinElmer, Operetta CLS) at intervals of 4 hours after starting the experiment, and calculating cell density from the bright field image using an image analysis software Harmony (PerkinElmer).

[3] = test system: 293A transformed cell line; experiment: Intracellular ATP level (viability) of Tm-treated 293A transformed cell line; assay type: cell-based; conditions: Tm treatment; 43 hours; FIG. 9
Method: (§1) Intracellular ATP level or activity of lactate dehydrogenase (LDH), which is released from cells that have been damaged in the cell membrane, were measured in order to confirm the effect of Compound No. 1 against cell growth or cytotoxicity. […] Each were measured using an ATP assay kit (Promega, Celltiter-glo) and LDH activity measurement kit (Dojindo, Cytotoxicity LDH Assay Kit-WST) using a multiplate reader, Cytation 3 (Bio-Tek) according to the protocols of the kits (number of tests n=4).

[4] = test system: 293A transformed cell line; experiment: Lactate dehydrogenase (LDH) release (cytotoxicity) of Tm-treated 293A transformed cell line; assay type: cell-based; conditions: 43 hours, FIG. 10
Method: as §1

[5] = Compound concentration: 5 μM, Tm-induced, EGFP fluorescence

For CCOC(=O)C1CCN(C(=O)c2ccc3c(c2)sc2nc(-c4ccc(OC)cc4)cn23)CC1 [compound 13], the inhibition at 5 µM [1, 5] was 60%.
In the case of O=C(NCCCN1CCCCC1)c1ccc2c(c1)sc1nc(-c3ccccc3)cn12 [compound 10], the inhibition at 5 µM [1, 5] was 41%.
Cc1ccc(-c2cn3c(n2)sc2cc(C(=O)NCCCN4CCOCC4)ccc23)cc1 [compound 11] was tested, and the inhibition at 5 µM [1, 5] was 66%.
With COc1cccc(-c2cn3c(n2)sc2cc(C(=O)NCCCN4CCOCC4)ccc23)c1 [compound 8] the inhibition at 5 µM [1, 5] was 98%.
O=C([O-])CCCc1ccccc1.[Na+] [4PBA, Sodium 4-phenylbutyrate, reference compound] was tested, and the inhibition at 5 µM [1, 5] was 0% and the “Suppression of EUA activity (endoplasmic reticulum stress response activation) caused by Tunicamycin” value (from here on “Suppression of EUA activity”) ([1]; concentration not given) was “could not suppress”.
For CC[C@@]1(O)C(=O)OCc2c1cc1n(c2=O)Cc2cc3ccccc3nc2-1 [camptothecin], the “Cell proliferation on treatment with the stress inducer / cytotoxic compound alone” value [2] was “almost completely inhibited”.
Work on CS(=O)(=O)c1ccc2c(c1)sc1nc(-c3ccccc3Cl)cn12 [compound 12] yielded an inhibition at 5 µM [1, 5] of 54%.
In the case of Tunicamycin [Tm], the “Cell proliferation on treatment with the stress inducer / cytotoxic compound alone” value [2] was “almost completely inhibited”.
In the case of C[C@H](CCC(=O)NCCS(=O)(=O)O)[C@H]1CC[C@H]2[C@@H]3[C@@H](O)C[C@@H]4C[C@H](O)CC[C@]4(C)[C@H]3CC[C@]12C [TUDCA, Tauroursodeoxycholic Acid, reference compound], the inhibition at 5 µM [1, 5] was 0% and the “Suppression of EUA activity” value ([1]; concentration not given) was “could not suppress”.
Clc1ccc(-c2cn3c(n2)sc2ccccc23)cc1 [compound 3] gave an inhibition at 5 µM [1, 5] of 101%.
CCN(CC)CCCNC(=O)c1ccc2c(c1)sc1nc(-c3ccccc3)cn12 [compound 9] was tested, and the inhibition at 5 µM [1, 5] was 61%.
With Fc1ccccc1-c1cn2c(n1)sc1ccccc12 [compound 5] the inhibition at 5 µM [1, 5] was 79%.
CCc1ccc(-c2cn3c(n2)sc2cc(C(=O)OC)ccc23)cc1 [compound 4] gave an inhibition at 5 µM [1, 5] of 99%.
In the case of COC(=O)c1ccc2c(c1)sc1nc(-c3ccccc3)cn12 [compound 2], the inhibition at 5 µM [1, 5] was 100%.
In the case of CCCC(=O)NCCc1csc(-c2ccc(Cl)cc2)n1 [Azoramide], the “Suppression of EUA activity” value ([1]; 40 μM) was “had an inhibitory effect”, the “Endoplasmic reticulum stress inhibition rate (Z)%” value [1, 5] was 0% and the “Intracellular ATP level recovered, % of that of UT cells” value [3] was “approximately 75%”. For the same molecule, the “LDH activity increased by Tm treatment, decreased to % of that of UT cells” value [4] was “approximately 50%” and the “Cell proliferation recovered, % of that of UT cells” value ([2]; 40 μM, 0.2 μg/mL Tm) was “approximately 58%”.
CCN(CC)CCCNC(=O)c1ccc2c(c1)sc1nc(-c3ccc(OC)cc3)cn12 [compound 6] showed an inhibition at 5 µM [1, 5] of 93%.
Cc1ccc(-c2cn3c(n2)sc2cc(C(=O)NCCCN4CCCCC4C)ccc23)cc1 (centres unmarked) [compound 7] gave an inhibition at 5 µM [1, 5] of 95%.

From US11559518B2, “Endoplasmic reticulum stress regulator comprising benzothiazoimidazolyl compound” (ER Stress Research Institute, Inc., priority 2017, dated 2023)
